Test: Maximum carbon dioxide (CO2) release temperature of amine compound (DSC after CO2 absorption from air)
Assay type: physicochemical
Conditions: amine compound with CO2 absorbed (air, 23° C., 50% RH, 24 hours); heating 10° C./minute, 23 to 250° C., nitrogen
Description: A carbon dioxide detector and a Petri dish were placed in an openable desiccator (inner dimension: 370 mm×260 mm×272 mm). Subsequently the amine compound (5 mmol) was added to the Petri dish in the desiccator and the door was immediately closed to leave the amine compound to stand in the desiccator in an air environment at 23° C. and 50% RH for 24 hours. The initial concentration of carbon dioxide was adjusted to about 400 ppm.
Then the amine compound was taken out of the desiccator to give an amine compound with carbon dioxide absorbed. The maximum carbon dioxide release temperature of the amine compound with carbon dioxide absorbed was measured by subjecting the amine compound to DSC as described below. First, differential scanning calorimetry of the amine compound was performed under conditions of a temperature range of 23 to 250° C., a heating rate of 10° C./minute and a nitrogen atmosphere using a differential thermogravimeter (product name DTG-60 made by Shimadzu Corporation). The temperature at which the amount of heat absorbed due to the desorption of carbon dioxide was the maximum was calculated from the DSC curve obtained, and the temperature was determined as the maximum carbon dioxide release temperature of the amine compound.

Compound | Maximum CO2 release temperature
NCCN [Ethylenediamine, ethylenediamine] | 103.4 °C
NCC1CCCC(CN)C1 (stereo not shown) [1,3-BAC, 1,3-bis(aminomethyl)cyclohexane] | 125.7 °C
CC1(C)CC(N)CC(C)(CN)C1 (stereo not shown) [IPDA, isophoronediamine] | 114.4 °C
NCc1cccc(CN)c1 [MXDA, metaxylylenediamine] | 135.5 °C

Reference: patent publication US20250223412A1, “BLOWING AGENT, FOAMING RESIN COMPOSITION, POLYURETHANE UREA RESIN FOAM, AND PRODUCTION METHOD FOR POLYURETHANE UREA FOAM” (MITSUBISHI GAS CHEMICAL COMPANY, INC., priority 2022, published 2025)
